Test results reported in patent US20220073536A1 (Rigel Pharmaceuticals, Inc., priority 2003, published 2022).
Counter-ions that a name gives are not always drawn. Like-named read-outs stand apart in the source and are kept apart here.

Tested on: cultured human mast cells (CHMC)
Experiment: CHMC low cell density IgE activation: tryptase assay
Format: cell-based
Settings: low cell density CHMC, IgE activation, tryptase
Procedure, shortened: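 Tryptase release was read from supernatant with a fluorogenic substrate (30 min, room temperature) after anti-IgE challenge of cultured human mast cells (1000–1500 cells/well, low density) for 30 minutes at 37° C.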

[1] = 3 pt, read-out: LD Tryptase, CHMC, IgE, 3 pt
[2] = 8 pt, read-out: LD Tryptase, CHMC, IgE, 8 pt
[3] = Homo sapiens, Mast cell, 3 pt, read-out: LD Tryptase, CHMC, IgE, 3 pt
[4] = Homo sapiens, Mast cell, 8 pt, read-out: LD Tryptase, CHMC, IgE, 8 pt

Row | Compound | IC50 [3] [µM] | also measured
1 | CC(=O)N1CCN(c2cccc(Nc3ncc(F)c(Nc4ccc5c(n4)NCCO5)n3)c2)CC1 [Compound 1137, N2-[3-(4-Acetylpiperazino)phenyl]-N4-(3,4-dihydro-2H,4H-5-pyrid[1,4]oxazin-6-yl)-5-fluoro-2,4-pyrimidinediamine] |  | IC50 [1]: < 10 µM; IC50 [2]: < 10 µM
2 | CCOC(=O)N1CCN(c2cccc(Nc3ncc(F)c(Nc4ccc5c(n4)NCCO5)n3)c2)CC1 [Compound 1138, N4-(3,4-Dihydro-2H,4H-5-pyrid[1,4]oxazin-6-yl)-N2-[3-(4-ethoxycarbonylpiperazino)phenyl]-5-fluoro-2,4-pyrimidinediamine] |  | IC50 [1]: < 10 µM; IC50 [2]: < 10 µM
3 | CN1CCN(c2ccc(Nc3ncc(F)c(NC4CCC4)n3)cc2Cl)CC1 [Compound 1188, N4-Cyclobutyl-5-fluoro-N2-[3-chloro-4-(4-methylpiperazino)phenyl]-2,4-pyrimidinediamine] | < 10 | 
4 | CC(=O)N1CCN(c2ccc(Nc3ncc(F)c(NC4CCC4)n3)cc2)CC1 [Compound 1192, N2-[4-(4-Acetylpiperazino)phenyl]-N4-cyclobutyl-5-fluoro-2,4-pyrimidinediamine Bis Hydrogen Chloride Salt] |  | IC50 [1]: < 10 µM
5 | CN1CCN(c2ccc(Nc3ncc(F)c(NC4CCCC4)n3)cc2Cl)CC1 [Compound 1195, N2-[3-Chloro-4-(4-methylpiperazino)phenyl]-N4-cyclopentyl-5-fluoro-2,4-pyrimidinediamine] | < 10 | 
6 | CN1CCN(c2ccc(Nc3ncc(F)c(Nc4cc(C5CC5)n[nH]4)n3)cc2Cl)CC1 [Compound 1196, N2-[3-Chloro-4-(4-methylpiperazino)phenyl]-N4-(3-cyclopropyl-1H-pyrazol-5-yl)-5-fluoro-2,4-pyrimidinediamine] | < 10 | 
7 | CN1CCN(c2ccc(Nc3ncc(F)c(Nc4ccc5c(n4)NCCO5)n3)cc2Cl)CC1 [Compound 1197, N2-[3-Chloro-4-(4-methylpiperazino)phenyl]-N4-(3,4-dihydro-2H,4H-5-pyrid[1,4]oxazin-6-yl)-5-fluoro-2,4-pyrimidinediamine] |  | IC50 [1]: < 10 µM; IC50 [2]: < 10 µM
8 | CN1CCN(c2ccc(Nc3ncc(F)c(NC4CCCCC4)n3)cc2Cl)CC1 [Compound 1199, N2-[3-Chloro-4-(4-methylpiperazino)phenyl]-N4-cyclohexyl-5-fluoro-2,4-pyrimidinediamine Bis Hydrogen Chloride Salt] |  | IC50 [2]: < 10 µM
9 | Cc1cc(Nc2ncc(F)c(NC3CCCC3)n2)ccc1N1CCN(C)CC1 [Compound 1200] | < 10 | 
10 | Cc1cc(Nc2ncc(F)c(NC3CCCCC3)n2)ccc1N1CCN(C)CC1 [Compound 1201] | < 10 | IC50 [4]: < 10 µM
11 | Cc1cc(Nc2ncc(F)c(Nc3cc(C4CC4)n[nH]3)n2)ccc1N1CCN(C)CC1 [Compound 1202] | < 10 | IC50 [4]: < 10 µM
12 | Cc1cc(Nc2ncc(F)c(Nc3ccc4c(n3)NCCO4)n2)ccc1N1CCN(C)CC1 [Compound 1203, N4-(3,4-Dihydro-2H,4H-5-pyrid[1,4]oxazin-6-yl)-5-fluoro-N2-[3-methyl-4-(4-methylpiperazino)phenyl]-2,4-pyrimidinediamine] |  | IC50 [1]: < 10 µM; IC50 [2]: < 10 µM
13 | CC(C)Nc1nc(Nc2ccc(N3CCN(C)CC3)cc2)ncc1F [Compound 1204] | < 10 | 
14 | CC(C)Nc1nc(Nc2ccc(N3CCN(C)CC3)c(Cl)c2)ncc1F [Compound 1205] | < 10 | 
15 | Cc1cc(Nc2ncc(F)c(NC(C)C)n2)ccc1N1CCN(C)CC1 [Compound 1206] | < 10 | IC50 [4]: > 10 µM
16 | CN1CCN(c2ccc(Nc3ncc(F)c(NC4CCC4)n3)cc2C(F)(F)F)CC1 [Compound 1207] | < 10 | 
17 | CN1CCN(c2ccc(Nc3ncc(F)c(NC4CCCC4)n3)cc2C(F)(F)F)CC1 [Compound 1208] | < 10 | 
18 | CN1CCN(c2ccc(Nc3ncc(F)c(NC4CCCCC4)n3)cc2C(F)(F)F)CC1 [Compound 1209] | < 10 | 
19 | CC(C)Nc1nc(Nc2ccc(N3CCN(C)CC3)c(C(F)(F)F)c2)ncc1F [Compound 1210] | < 10 | 
20 | CN1CCN(c2ccc(Nc3ncc(F)c(Nc4cc(C5CC5)n[nH]4)n3)cc2C(F)(F)F)CC1 [Compound 1211] |  | IC50 [1]: < 10 µM
21 | CN1C(C)(C)CC(Nc2nc(Cl)ncc2F)CC1(C)C [Compound 1212] | > 10 | 

Row | Compound | IC50 [3] [µM] | also measured
22 | CCOC(=O)N1CCC(Nc2nc(Cl)ncc2F)CC1 [Compound 1213] | > 10 | 
23 | CC(C)Nc1nc(Nc2cccc(N3CCN(C)CC3)c2)ncc1F [Compound 1214] | > 10 | 
24 | CN1CCN(c2ccc(Nc3ncc(F)c(NC(C)(C)C)n3)cc2)CC1 [Compound 1215] | > 10 | 
25 | CN1CCN(c2cccc(Nc3ncc(F)c(NC(C)(C)C)n3)c2)CC1 [Compound 1216] | > 10 | 
26 | CN1CCN(c2ccc(Nc3ncc(F)c(NC(C)(C)C)n3)cc2Cl)CC1 [Compound 1217] | < 10 | 
27 | Cc1cc(Nc2ncc(F)c(NC(C)(C)C)n2)ccc1N1CCN(C)CC1 [Compound 1218] |  | IC50 [4]: < 10 µM
28 | CN1CCN(c2ccc(Nc3ncc(F)c(NC4CC(C)(C)N(C)C(C)(C)C4)n3)cc2)CC1 [Compound 1219] | > 10 | 
29 | Cc1cc(Nc2ncc(F)c(NC3CCC3)n2)ccc1N1CCN(C)CC1 [Compound 1220] |  | IC50 [4]: < 10 µM
30 | CN1CCN(c2cccc(Nc3ncc(F)c(NC4CC(C)(C)N(C)C(C)(C)C4)n3)c2)CC1 [Compound 1221] | > 10 | 
31 | CN1CCN(c2ccc(Nc3ncc(F)c(NC4CC(C)(C)N(C)C(C)(C)C4)n3)cc2Cl)CC1 [Compound 1222] | > 10 | 
32 | Cc1cc(Nc2ncc(F)c(NC3CC(C)(C)N(C)C(C)(C)C3)n2)ccc1N1CCN(C)CC1 [Compound 1223] | < 10 | 
33 | CN1CCN(c2ccc(Nc3ncc(F)c(NC4CC(C)(C)N(C)C(C)(C)C4)n3)cc2C(F)(F)F)CC1 [Compound 1224] | > 10 | 
34 | CCOC(=O)N1CCC(Nc2nc(Nc3ccc(N4CCN(C)CC4)cc3)ncc2F)CC1 [Compound 1225] | < 10 | 
35 | CCOC(=O)N1CCC(Nc2nc(Nc3cccc(N4CCN(C)CC4)c3)ncc2F)CC1 [Compound 1226] | < 10 | 
36 | CCOC(=O)N1CCC(Nc2nc(Nc3ccc(N4CCN(C)CC4)c(Cl)c3)ncc2F)CC1 [Compound 1227] | < 10 | 
37 | CCOC(=O)N1CCC(Nc2nc(Nc3ccc(N4CCN(C)CC4)c(C)c3)ncc2F)CC1 [Compound 1228] | < 10 | 
38 | CCOC(=O)N1CCC(Nc2nc(Nc3ccc(N4CCN(C)CC4)c(C(F)(F)F)c3)ncc2F)CC1 [Compound 1229] | < 10 | 
39 | CCN1CCN(c2ccc(Nc3ncc(F)c(NC4CCC4)n3)cn2)CC1 [Compound 1230] | < 10 | 
40 | CCN1CCN(c2ccc(Nc3ncc(F)c(NC4CCCC4)n3)cn2)CC1 [Compound 1231] | < 10 | 
41 | CCN1CCN(c2ccc(Nc3ncc(F)c(NC4CCCCC4)n3)cn2)CC1 [Compound 1232] | < 10 | 
42 | CN1CCN(c2ccc(Nc3ncc(F)c(NC(C)(C)C)n3)cc2C(F)(F)F)CC1 [Compound 1233] | < 10 | 

Row | Compound | IC50 [3] [µM] | also measured
43 | CCN1CCN(c2ccc(Nc3ncc(F)c(NC(C)C)n3)cn2)CC1 [Compound 1234] | < 10 | 
44 | CN1CCN(c2ccc(Nc3ncc(F)c(NC4CCC4)n3)cc2CO)CC1 [Compound 1235] |  | IC50 [4]: > 10 µM
45 | CCN1CCN(c2ccc(Nc3ncc(F)c(NC(C)(C)C)n3)cn2)CC1 [Compound 1236] | > 10 | 
46 | CCN1CCN(c2ccc(Nc3ncc(F)c(NC4CC(C)(C)N(C)C(C)(C)C4)n3)cn2)CC1 [Compound 1237] | > 10 | 
47 | CCOC(=O)N1CCC(Nc2nc(Nc3ccc(N4CCN(CC)CC4)nc3)ncc2F)CC1 [Compound 1238] | > 10 | 
48 | Cc1cc(Nc2ncc(F)c(NC3CCC3)n2)cnc1N1CCN(C)CC1 [Compound 1239] | > 10 | 
49 | Cc1cc(Nc2ncc(F)c(NC3CCCC3)n2)cnc1N1CCN(C)CC1 [Compound 1240, N4-Cyclopentyl-5-fluoro-N2-[2-(4-methylpiperazino)-3-methylpyrid-5-yl]-2,4-pyrimidinediamine] | < 10 | 
50 | Cc1cc(Nc2ncc(F)c(NC3CCCCC3)n2)cnc1N1CCN(C)CC1 [Compound 1241] | < 10 | 
51 | Cc1cc(Nc2ncc(F)c(NC(C)C)n2)cnc1N1CCN(C)CC1 [Compound 1242] | < 10 | 
52 | CN1CCN(c2ccc(Nc3ncc(F)c(NC4CCC4)n3)cc2CO)CC1 [Compound 1243, N4-Cyclobutyl-5-fluoro-N2-[3-hydroxymethyl-4-(4-methylpiperazino)phenyl]-2,4-pyrimidinediamine Bishydrogen chloride salt] |  | IC50 [1]: < 10 µM
53 | Cc1cc(Nc2ncc(F)c(NC3CC(C)(C)N(C)C(C)(C)C3)n2)cnc1N1CCN(C)CC1 [Compound 1244] | > 10 | 
54 | Cc1cc(N2CCN(C)CC2)ncc1Nc1ncc(F)c(NC2CCC2)n1 [Compound 1245] | > 10 | 
55 | Cc1cc(N2CCN(C)CC2)ncc1Nc1ncc(F)c(NC2CCCC2)n1 [Compound 1246] | > 10 | 
56 | Cc1cc(N2CCN(C)CC2)ncc1Nc1ncc(F)c(NC2CCCCC2)n1 [Compound 1247] | < 10 | 
57 | Cc1cc(N2CCN(C)CC2)ncc1Nc1ncc(F)c(NC(C)C)n1 [Compound 1248] | > 10 | 
58 | Cc1cc(N2CCN(C)CC2)ncc1Nc1ncc(F)c(NC2CC(C)(C)N(C)C(C)(C)C2)n1 [Compound 1249] | > 10 | 
59 | Cc1cc(Nc2ncc(F)c(NC3(CO)CCCC3)n2)ccc1N1CCN(C)CC1 [Compound 1250] | < 10 | 
60 | Cc1cc(C)cc(Nc2ncc(F)c(Nc3nc(N)n[nH]3)n2)c1 [Compound 1252] |  | IC50 [4]: > 10 µM
61 | COc1ccc(Nc2ncc(F)c(Nc3n[nH]c(N)n3)n2)cc1Cl [Compound 1253] |  | IC50 [4]: > 10 µM
62 | Nc1nc(Nc2nc(Nc3ccc(Cl)c(Cl)c3)ncc2F)n[nH]1 [Compound 1254] |  | IC50 [4]: > 10 µM
